From BindingDB's records for doi:10.1016/j.bmc.2013.04.067 (Chinese Academy of Sciences, 2013)

Experiment: Inhibition of p-gp in human KB/VCR cells assessed as potentiation of 100 nM docetaxel-induced cytotoxicity after 72 hrs by MTT assay

## CC1(C)[C@@H](O)CC[C@]2(C)[C@H]3C[C@@H](O)[C@@H]4[C@@H]([C@@](C)(O)CCCNCCc5ccccc5)CC[C@@]4(C)[C@]3(C)CC[C@@H]12
  EC50: 1310 nM

## CC1(C)[C@@H](O)CC[C@]2(C)[C@H]3C[C@@H](O)[C@@H]4[C@@H]([C@@](C)(O)CCCNCc5ccccc5)CC[C@@]4(C)[C@]3(C)CC[C@@H]12
  EC50: 1370 nM
